The values below come from patent US5641500A, “Use of purinergic receptor agonists as antineoplastic agents” (The United States of America as represented by the …, priority 1995, dated 1997).

Assay [1] has as its system PC-3 prostate carcinoma cells. Kind of assay: Cell growth (hemacytometer viable cell counts) and 3H-thymidine incorporation in PC-3. It counts as cell-based, human. As to conditions: for 3H-thymidine incorporation cpm / 3H-thymidine incorporation cpm/cell / cell # (× 10-4): PC-3, 7 days; for inhibition of cell growth: PC-3, 5 days, versus untreated control cells, FIG. 12. On the procedure: (§1) The human prostate carcinoma cell lines PC3, DU145 (American Type Culture Collection) and PC-3M (a gift of Dr. G. Weiss, Surgery Branch, NCI) were maintained in Ham's F12K (PC3), Eagle's Modified Essential Medium (DU145), or RPMI 1640 (PC3M), supplemented with 7% (PC3) or 10% (DU145 and PC3M) fetal bovine serum, 100 units/ml penicillin, […], and […]. The cells were grown in a mixture of 5% CO2, 95% air at 37° C., and propagated by typsinization and dilution into fresh medium. Cells were typically used for calcium determination two days after dilution into fresh medium.
(§2) Cell growth was studied by hemacytometer counts of viable cells after incubation of cells with purinergic agonists in vitro. Viability was determined by trypan blue exclusion. In addition, growth studies were performed by ^3 H-thymidine incorporation. […] The induction of DNA strand breaks in the setting of cell growth inhibition is characteristic of programmed cell death or apoptosis.
(§3) Since purinergic receptor agonists induce massive mobilization of internal Ca^2+ stores and prolong this response through the opening of plasma membrane Ca^2+ channels, the effect of purinergic receptor stimulation on the growth of androgen-independent cells was examined. The cell lines DU145, PC-3, and PC-3M were incubated in the presence of ATP or the nonhydrolysable ATP analog adenylylimidodiphosphate (AMP-PNP), and cell growth was determined by hemacytometer counts of viable cells, with viability determined by trypan blue exclusion.
(§4) To further document the purinergic agonist-induced growth inhibition, thymidine incorporation studies were performed in conjunction with hemacytometer cell counts, and the thymidine incorporation per cell of ATP and AMP-PNP treated PC-3 and PC-3M cells was determined. These studies, shown in Table 2, confirmed that purinergic agonists inhibit the growth of androgen-independent prostate carcinoma cells. […] It is of interest that normal prostate cells die in response to androgen withdrawal in a process called apoptosis, and this cell death resembles the cell death shown after treatment with purinergic agonists in two respects. Firstly, the death of normal prostate cells after androgen withdrawal is dependent on a rise in intracellular Ca^2+. Secondly, the death of normal prostate cells after androgen withdrawal is mediated by an increase in the number of DNA strand breaks. Thus, this technique should be therapeutically useful for circumventing the absence of androgen receptors on advanced prostate carcinoma cells. The results presented here represent the discovery of a surface receptor specifically expressed on advanced prostatic adenocarcinoma which, when activated, induces a mode of cell death that apparently utilizes that same intracellular pathway as the death that normal prostate cells undergo in response to the withdrawal of androgen.
(In general: Uptake of a labelled nucleoside into DNA is a usual measure of proliferation.)

Assay [2] concerns plasma membrane Ca^2+ channels. Nature of the assay: Effect of organic Ca2+ channel blockers on the ATP-stimulated Ca2+ transient in PC-3. It counts as cell-based, human. As to conditions: PC-3, FIG. 9.
For assay [3], the system named is DU145 prostate carcinoma purinergic receptor. Kind of assay: ATP/purine-stimulated Ca2+ response (quin2 fluorescence) in DU145. The format is cell-based, human. As to conditions: for relative agonist potency/activity in inducing a Ca2+ transient: DU145, FIG. 6.
Description: (§5) The human prostate carcinoma cell lines PC3, DU145 (American Type Culture Collection) and PC-3M (a gift of Dr. G. Weiss, Surgery Branch, NCI) were maintained in Ham's F12K (PC3), Eagle's Modified Essential Medium (DU145), or RPMI 1640 (PC3M), supplemented with 7% (PC3) or 10% (DU145 and PC3M) fetal bovine serum, 100 units/ml penicillin, 100 mg/ml streptomycin, and 300 mg/ml glutamine. The cells were grown in a mixture of 5% CO2, 95% air at 37° C., and propagated by typsinization and dilution into fresh medium. Cells were typically used for calcium determination two days after dilution into fresh medium.
(§6) [Ca^2+ ]i was determined by the quin2 technique of Tsien et al. (J. Cell Biol. 94:325-334, 1982) with some modifications. Briefly, cells from confluent cultures were harvested by treatment with trypsin-EDTA. Cells were washed with calcium medium (1 mM CaCl2, 1 mM KCl, 1 mM MgCl2, 140 mM NaCl, 20 mM HEPES, 5 mM dextrose, pH 7.4), and loaded with 20 mM quin2/AM (Molecular Probes, Eugene, Oreg.) in calcium medium at 37° C. for 30 minutes, then diluted 5-fold with the same medium and incubated at 37° C. for 60 minutes. After loading, cells were washed and resuspended in the calcium media at 1.5-2.0×10^6 cells/ml and kept on ice until use. Cell viability was determined by trypan blue exclusion and was usually >95%. For measurement of fluorescence, 2 ml of cell suspension was transferred to a cuvette maintained at 37° C. Fluorescence was measured in a Perkin-Elmer 650-10S fluorescence spectrophotometer, with an excitation wavelength of 336 nm, slit 5 nm, and an emission wavelength of 493 nm, slit 5 nm. [Ca^2+ ]i was estimated after calibration with Triton X-100 and EGTA, assuming a dissociation constant of the Ca^2+ -quin2 complex of 115 nM.
Assay [4] deals with PC-3 prostate carcinoma purinergic receptor. Kind of assay: ATP/purine-stimulated Ca2+ response (quin2 fluorescence) in PC-3. As to conditions: for relative agonist potency/activity in inducing a Ca2+ transient: PC-3, FIG. 7. It counts as cell-based, human.
Description: as §5, §6
For assay [5], the system named is purinergic receptor on PC-3M prostate carcinoma cells. Kind of assay: Purine-stimulated Ca2+ response (quin2 fluorescence) in PC-3M. The format is cell-based, human. As to conditions: FIG. 8.
Description: as §5, §6
Assay [6] concerns PC-3M prostate carcinoma cells. Nature of the assay: Cell growth (hemacytometer viable cell counts) and 3H-thymidine incorporation in PC-3M. The format is cell-based, human. As to conditions: 5 days. As for the experimental part:
as §1, §2, §3, §4

In another assay the test system is DU145 cells. Kind of assay: Cell growth (hemacytometer viable cell counts) in DU145. It counts as cell-based, human. As to conditions: DU145, 5 days, 100 μM, versus untreated controls, FIG. 11. As for the experimental part:
as §1
Cell growth was studied by hemacytometer counts of viable cells after incubation of cells with purinergic agonists in vitro. Viability was determined by trypan blue exclusion. In addition, growth studies were performed by ^3 H-thymidine incorporation. […]
as §3

The subject of assay [7] is PC-3 prostate carcinoma cells. Nature of the assay: Nude mouse tumorigenesis of PC-3 cells pretreated in vitro. It counts as in vivo, athymic mice. As to conditions: cells pretreated in vitro 100 uM 3 times over 7 days, 1.5×10^6 cells/mouse s.c., FIG. 13. As for the experimental part: PC-3 prostate carcinoma cells were treated in vitro with the purinergic agonists ATP or AMP-PNP, 100 uM 3 times over 7 days, and their growth in athymic mice was compared to that in untreated control cells. Cells were injected subcutaneously at an inoculum of 1.5×10^6 cells/mouse in 0.2 ml phosphate buffered saline, and the presence of palpable tumors was determined on day 22.
The cells were treated in vitro for 7 days, and then an equal number of untreated control cells, ATP treated, or AMP-PNP treated cells were inoculated subcutaneously into nude (athymic) mice.

A further assay deals with phospholipase C. Nature of the assay: ATP-stimulated inositol phosphate production (HPLC of 3H-inositol phosphates) in PC-3. It counts as cell-based, human. On the procedure: Cells were incubated with ^3 H-inositol (6 μCi/ml) in inositol-free RPMI 1640 medium (NIH Media Unit) without serum for 2 to 3 days at 37° C. under an atmosphere of 5% CO2, 95% air. Cells were detached by trypsinization, washed twice in phosphate buffered saline pH 7.4, resuspended in PBS with 10 mM LiCl, and maintained for 15 minutes at 37° C. After that, cells were washed twice with PBS plus 10 mM LiCl and resuspended in calcium medium plus 10 mM LiCl. The cell suspension was aliquoted into Eppendorf tubes, pre-warmed at 37° C., and treated with reagents for different times as indicated. Reactions were terminated by adding 100% trichloroacetic acid (TCA) to a final concentration of 10%. After centrifugation, the supernatants were removed, extracted twice with water-saturated ether to remove TCA, and stored at 4° C. until quantitative analysis of inositol phosphates by high pressure liquid chromatography.
Samples prepared as described above were applied to a Whatman Partisil 5 SAX column. Inositol phosphates were separated using an ammonium phosphate gradient (0.01M to 1.4M. pH 3.8, 1 ml/min flow rate) as described previously (Biochem. J. 255: 403-410, 1988). Radioactivity was measured by use of a Raytest radiodetector with a 2 ml flow cell and a ratio of 4:1 (v:v) of Monoflow 4 high salt scintillant (National Diagnostics); eluate at an efficiency of 17%. Values (counts/min) for each inositol phosphate were expressed as a percentage of ^3 H-phosphoinositides in the sample, permitting comparison among experiments.

`CCCC(=O)Nc1ncnc2c1ncn2[C@@H]1O[C@@H]2COP(=O)(O)O[C@H]2[C@H]1OC(=O)CCC` [DbcAMP, reference compound]: in assay [1] (DbcAMP concentration not given), the 3H-thymidine incorporation cpm was 182 cpm, the 3H-thymidine incorporation cpm/cell turned out to be 0.01 cpm/cell and the “cell # (× 10-4)” value is reported as 1.5 × 10-4.

Take `COC(=O)C1=C(C)NC(C)=C(C(=O)OCCN(C)Cc2ccccc2)C1c1cccc([N+](=O)[O-])c1` (stereo not shown) [nicardipine]: in assay [2], the “inhibition of influx of extracellular Ca2+ caused by ATP stimulation” value (from here on “inhibition of influx … by ATP stimulation”) is “inhibitable”.

As for `Nc1ncnc2c1ncn2[C@@H]1O[C@H](COP(=O)(O)OP(=O)(O)O)[C@@H](O)[C@H]1O` [ADP, adenosine diphosphate], the “relative agonist potency/activity in inducing a Ca2+ transient” value (“relative agonist potency/activity” below) in assay [3], in assay [4] and in assay [5] was “ATP>ADP>AMP>adenosine” in each case.

For `C[C@H](CCC(=O)O)C[C@H](C)C[C@H](C)C(=O)/C=C(\O)[C@H](C)C[C@H](C)C/C=C/[C@@H](C)[C@@H](O)[C@@H](C)[C@@H](O)C[C@@H]1CC[C@@](C)([C@H]2CC[C@@](C)([C@@H](C)O)O2)O1` [Ionomycin, ionomycin, reference compound], in assay [6] (1 μM), the 3H-thymidine incorporation cpm is reported as 3920 cpm, the 3H-thymidine incorporation cpm/cell amounted to 0.39 cpm/cell and the “cell # (× 10-4)” value is 1.0 × 10-4.

For the compound `Nc1ncnc2c1ncn2[C@@H]1O[C@H](COP(=O)(O)OP(=O)(O)NP(=O)(O)O)[C@@H](O)[C@H]1O` [AMP-PNP, 5'adenylylimidodiphosphate], the “inhibition of cell growth” value in the assay with DU145 cells was “inhibition of growth”. Besides, in assay [1] (100 μM), the “inhibition of cell growth” value was “inhibition of growth”, the 3H-thymidine incorporation cpm is 307 cpm, the 3H-thymidine incorporation cpm/cell is 0.06 cpm/cell and the “cell # (× 10-4)” value is given as 0.5 × 10-4. Further, in [7], the “inhibition of tumorigenesis (palpable tumor)” value is given as “inhibition of PC-3 prostate carcinoma tumorigenesis”. In assay [6] (100 μM), the 3H-thymidine incorporation cpm was found to be 2790 cpm, the 3H-thymidine incorporation cpm/cell is given as 0.14 cpm/cell and the “cell # (× 10-4)” value was 2.0 × 10-4.

Consider `COc1ccc([C@@H]2Sc3ccccc3N(CCN(C)C)C(=O)[C@@H]2OC(C)=O)cc1` [diltiazem], for which the “inhibition of influx … by ATP stimulation” value in assay [2] was “inhibitable”.

As for `COc1ccc(CCN(C)CCCC(C#N)(c2ccc(OC)c(OC)c2)C(C)C)cc1OC` (stereo not shown) [verapamil], in assay [2], the “inhibition of influx … by ATP stimulation” value is “inhibitable”.

For `Nc1ncnc2c1ncn2[C@@H]1O[C@H](COP(=O)(O)O)[C@@H](O)[C@H]1O` [AMP, adenosine monophosphate], the “relative agonist potency/activity” value in assay [3], in assay [4] and in assay [5] was “ATP>ADP>AMP>adenosine” in each case.

With `Nc1ncnc2c1ncn2[C@@H]1O[C@H](COP(=O)(O)OP(=O)(O)OP(=O)(O)O)[C@@H](O)[C@H]1O` [ATP, adenosine triphosphate], the “inhibition of cell growth” value (in the assay with DU145 cells; in assay [1] (100 μM)) was “inhibition of growth” each time. Also, the 3H-thymidine incorporation cpm is recorded as 2729 cpm in assay [1] (100 μM) and 3307 cpm in assay [6] (100 μM). For the same compound, the 3H-thymidine incorporation cpm/cell is reported as 0.04 cpm/cell in [1] (100 μM) and 0.11 cpm/cell in assay [6] (100 μM). Also, the “cell # (× 10-4)” value in assay [1] (100 μM) is on record as 7.5 × 10-4; in assay [6] (100 μM) it was 3.0 × 10-4. Further, in [7], the “inhibition of tumorigenesis (palpable tumor)” value was “inhibition of PC-3 prostate carcinoma tumorigenesis”. Moreover, the “mean percent stimulation of Ca2+ response” value in [3] (DU145, 100 μM ATP, 13 experiments) was 510.7%; in assay [4] (PC-3, 100 μM ATP, 16 experiments) it was 443.3%. Also, the “relative agonist potency/activity” value in [3], in assay [4] and in [5] was “ATP>ADP>AMP>adenosine” each time. Moreover, the “I(1,4,5)P3 % of total IP” value was 0.64 % of total IP in the assay with phospholipase C (PC-3, 8 sec); 0.57 % of total IP in the assay with phospholipase C (PC-3, 15 sec); 0.78 % of total IP in the assay with phospholipase C (PC-3, 30 sec). For the same compound, the “I(1,4,5)P3 cpm” value in the assay on phospholipase C (PC-3, 8 sec) was determined as 1103 cpm; in the assay on phospholipase C (PC-3, 15 sec) it was 971 cpm; in the assay with phospholipase C (PC-3, 30 sec) it was 1361 cpm. Further, the “Ca2+ mobilizing activity compared with other peptides and neurotransmitters” value in assay [4] (PC-3, FIG. 1) was “largest Ca^2+ response of the agonists tested”.

`Nc1ncnc2c1ncn2[C@@H]1O[C@H](CO)[C@@H](O)[C@H]1O` [adenosine]: the “relative agonist potency/activity” value in assay [3], in [4] and in assay [5] was “ATP>ADP>AMP>adenosine” throughout.

Turning to `COC(=O)C1=C(C)NC(C)=C(C(=O)OC)C1c1ccccc1[N+](=O)[O-]` [nifedipine], in assay [2], the “inhibition of influx … by ATP stimulation” value was “inhibitable”.
